Read-outs that look alike come from different tables or passages of the source.
Key:
human ENT1 [1] = molecular target: T1, human ENT1 (Homo sapiens, UniProt Q99808); test: Uridine transport inhibition assay (3H-uridine uptake, MDCKII-ENT1-LV cells); type: cell-based; conditions: 3H-uridine (1 μM), 1 min at 25° C.
T1 sequence (Q99808 1-456): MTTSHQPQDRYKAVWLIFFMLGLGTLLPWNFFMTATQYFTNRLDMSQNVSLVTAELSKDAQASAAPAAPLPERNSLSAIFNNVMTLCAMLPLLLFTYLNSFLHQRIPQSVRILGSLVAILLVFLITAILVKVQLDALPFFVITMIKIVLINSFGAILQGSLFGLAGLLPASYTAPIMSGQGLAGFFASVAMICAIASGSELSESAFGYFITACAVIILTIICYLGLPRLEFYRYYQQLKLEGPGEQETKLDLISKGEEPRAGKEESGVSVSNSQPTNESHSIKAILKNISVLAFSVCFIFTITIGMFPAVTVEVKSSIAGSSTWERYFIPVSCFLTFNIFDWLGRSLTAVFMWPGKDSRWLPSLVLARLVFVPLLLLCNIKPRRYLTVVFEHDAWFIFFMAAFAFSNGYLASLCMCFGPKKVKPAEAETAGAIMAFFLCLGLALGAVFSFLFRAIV
Excerpt: Purpose. The aim of this study was to determine the potency of equilibrative nucleoside transporter 1 (ENT1) inhibitors by measuring ENT1-mediated transport is the cellular uptake assay. The human ENT1 transporter can be stably expressed in Madin-Darby Canine Kidney II (MDCKII) cells via transduction. Uridine is efficiently transported by ENT1 and is used as probe in the assay as 3H-uridine. The interaction is detected as the modulation of the initial rate of 3H-uridine transport by human ENT1 into MDCKII-ENT1-LV cells stably expressing ENT1 uptake transporter.

[2] = tested on: stimulated primary human T cells; test: T cell proliferation assay (rescue of proliferation in presence of 100 uM ATP); type: cell-based
Method: Purpose. The aim of this study was to determine the potency of equilibrative nucleoside transporter 1 (ENT1) inhibitors to rescue proliferation by stimulated primary human T cells incubated in the presence of 100 uM Adenosine triphosphate (ATP) with: • Condition A: X-VIVO15 • Condition B: X-VIVO15, 2% Human Serum Albumine (HSA) and 0.1% α-1-Acid Glycoprotein (AAG)
Method. Cryopreserved purified human CD3+ T cells were thawed and washed twice with RPMI1640 medium, UltraGlutamine containing 10% hiFBS.
Cells were suspended in PBS containing 10% hiFBS. Cells were stained with CFSE by adding 2 μM solution in PBS, to get a final 1 μM CFSE solution. Cells were incubated while rotating for 5 minutes. Reaction was stopped by adding PBS with 10% FBS and cells were centrifuged for 5 minutes at 1500 rpm.
Cells were resuspended at 1.6×10^6 cells/mL, either in X-VIVO15 medium or in 4% Human Serum Albumin and 0.2% α-1-Acid Glycoprotein. 50 μL of cell suspension (8×10^4 T cells) was added to wells of sterile round-bottom 96-well plates. Cells were activated by adding 50 μL of anti-CD3 anti-CD28 coated microbeads, suspended either in XVIVO-15 medium or in 4% HSA and 0.2% α-1-Acid Glycoprotein, at a ratio of one microbead per two cells.
Serial dilutions of the ENT1 inhibitors were prepared in X-VIVO15 from 10 mM stock solutions in DMSO, and 50 μL was added to the wells.
ATP powder was diluted in X-VIVO15, and 50 μL of this compound was added to the wells to reach a final assay concentration of 100 μM. Final volume of 200 μL.
The experiments were also performed in 384 well plates—all volumes reduced by a factor of 4 ([…]) with a final volume of 50 μL.
Experiments were performed in duplicate. The cells were placed in a 37° C. humidified tissue culture incubator with 5% CO2 for 72 hours for 96 well plates, 96 hours for 384 well plates. After 72 or 96 hours, proliferation was measured determined by CFSE dilution via flow cytometry.
Results. Compounds of the invention have good ENT1 inhibitory properties.

human ENT1 [3] = molecular target: T1, human ENT1; test: ENT1 binding assay (competition with Sahenta-DY647 on JAR cells); set-up: JAR cells expressing ENT1 were bought from ATCC; host or cells: JAR cells; conditions: binned IC50
Outline: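 JAR cells were incubated with test compounds and the fluorescent ligand Sahenta-DY647 in competition. Plates were washed twice by centrifugation (4 min, 400 rcf, 4 °C). Binding potency was derived from the final fluorescence.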

Row | IC50 (human ENT1 [3]) | Structure (SMILES) | also measured
1 | < 100 nM | COCCN(CCOC)c1nc(N2CCC(OC)CC2)c2nc(N(CCOC)CCOC)nc(N(C)Cc3cccc(OC)c3)c2n1 [Compound 171, N4-(3-methoxybenzyl)-N2,N2,N6,N6-tetrakis(2-methoxyethyl)-8-(4-methoxypiperidin-1-yl)-N4-methylpyrimido[5,4-d]pyrimidine-2,4,6-triamine] | IC50 (human ENT1 [1]): < 100 nM; IC50 ([2]; Condition A: X-VIVO15, read-out: TCell proliferation (Condition A) IC50): 100 to 500 nM; IC50 ([2]; Condition B: X-VIVO15, 2% HSA and 0.1% AAG, read-out: TCell proliferation (Condition B) IC50): 100 to 500 nM
2 | < 100 nM | COCCN(Cc1cc(F)c(C(=O)O)c(F)c1)c1nc(N2CCN(C)C(=O)C2)c2nc(N(CCOC)CCOC)nc(N3CCC(OC)CC3)c2n1 [Compound 340, 4-(((6-(bis(2-methoxyethyl)amino)-8-(4-methoxypiperidin-1-yl)-4-(4-methyl-3-oxopiperazin-1-yl)pyrimido[5,4-d]pyrimidin-2-yl)(2-methoxyethyl)amino)methyl)-2,6-difluorobenzoic acid] | 
3 | 100 to 500 nM | COCCN(CCOC)c1nc(N2CCN(C)C(=O)C2)c2nc(N(CCOC)CCOC)nc(N3CCS(=O)(=O)CC3)c2n1 [Compound 188, 4-(2,6-bis(bis(2-methoxyethyl)amino)-8-(1,1-dioxidothiomorpholino)pyrimido[5,4-d]pyrimidin-4-yl)-1-methylpiperazin-2-one] | 
4 | 100 to 500 nM | COCCN(CCOC)c1nc(N2CCC(OC)CC2)c2nc(N(CCOC)CCOC)nc(NC3CCCC3)c2n1 [Compound 167, N4-cyclopentyl-N2,N2,N6,N6-tetrakis(2-methoxyethyl)-8-(4-methoxypiperidin-1-yl)pyrimido[5,4-d]pyrimidine-2,4,6-triamine] | 
5 | 100 to 500 nM | CCCNc1nc(N(CCOC)CCOC)nc2c(N3CCN(c4ncn(C)n4)CC3)nc(N(CCOC)CCOC)nc12 [Compound 218, N2,N2,N6,N6-tetrakis(2-methoxyethyl)-8-(4-(1-methyl-1H-1,2,4-triazol-3-yl)piperazin-1-yl)-N4-propylpyrimido[5,4-d]pyrimidine-2,4,6-triamine] | 
6 | 100 to 500 nM | COCCN(CCOC)c1nc(N2CCN(c3ncn(C)n3)CC2)c2nc(N(CCOC)CCOC)nc(N3CCN(c4ncn(C)n4)CC3)c2n1 [Compound 131, N2,N2,N6,N6-tetrakis(2-methoxyethyl)-4,8-bis(4-(1-methyl-1H-1,2,4-triazol-3-yl)piperazin-1-yl)pyrimido[5,4-d]pyrimidine-2,6-diamine] | 
7 | 100 to 500 nM | COCCN(CCOC)c1nc(N2CCCC(OC)C2)c2nc(N(CCOC)CCOC)nc(N3CCC(OC)CC3)c2n1 (stereo not shown) [Compound 96, N2,N2,N6,N6-tetrakis(2-methoxyethyl)-4-(3-methoxypiperidin-1-yl)-8-(4-methoxypiperidin-1-yl)pyrimido[5,4-d]pyrimidine-2,6-diamine] | 
8 | < 100 nM | COCCN(CCOC)c1nc(N2CCN(c3ncn(C)n3)CC2)c2nc(N(CCOC)CCOC)nc(NCc3cccc(OC)c3)c2n1 [Compound 222, N4-(3-methoxybenzyl)-N2,N2,N6,N6-tetrakis(2-methoxyethyl)-8-(4-(1-methyl-1H-1,2,4-triazol-3-yl)piperazin-1-yl)pyrimido[5,4-d]pyrimidine-2,4,6-triamine] | 
9 | < 100 nM | COC1CCN(c2nc(N(CCOC(C)=O)CCOC(C)=O)nc3c(N4CCC(OC)CC4)nc(N(CCOC(C)=O)CCOC(C)=O)nc23)CC1 [Compound 15, ((4,8-bis(4-methoxypiperidin-1-yl)pyrimido[5,4-d]pyrimidine-2,6-diyl)bis(azanetriyl))tetrakis(ethane-2,1-diyl)tetraacetate] | 
10 | 500 to 1000 nM | COC1CCN(c2nc(N(CCO)CCO)nc3c(N4CCN(C)C(=O)C4)nc(N(CCO)CCO)nc23)CC1 [Compound 321, 4-(2,6-bis(bis(2-hydroxyethyl)amino)-8-(4-methoxypiperidin-1-yl)pyrimido[5,4-d]pyrimidin-4-yl)-1-methylpiperazin-2-one] | 
11 | 500 to 1000 nM | COCCN(CCOC)c1nc(N2CCNC(=O)C2)c2nc(N(CCOC)CCOC)nc(N3CCC(OC)CC3)c2n1 [Compound 70, 4-(2,6-bis(bis(2-methoxyethyl)amino)-8-(4-methoxypiperidin-1-yl)pyrimido[5,4-d]pyrimidin-4-yl)piperazin-2-one] | 
12 | 100 to 500 nM | COCCN(CCOC)c1nc(N2CCC(OC)CC2)c2nc(N(CCOC)CCOC)nc(N(C)Cc3ccccn3)c2n1 [Compound 73, N2,N2,N6,N6-tetrakis(2-methoxyethyl)-8-(4-methoxypiperidin-1-yl)-N4-methyl-N4-(pyridin-2-ylmethyl)pyrimido[5,4-d]pyrimidine-2,4,6-triamine] | 
13 | 100 to 500 nM | COCCN(CCOC)c1nc(N2CC[C@H](OC)C2)c2nc(N(CCOC)CCOC)nc(N3CCC(OC)CC3)c2n1 [Compound 106, (S)-N2,N2,N6,N6-tetrakis(2-methoxyethyl)-4-(4-methoxypiperidin-1-yl)-8-(3-methoxypyrrolidin-1-yl)pyrimido[5,4-d]pyrimidine-2,6-diamine] | 
14 | 500 to 1000 nM | COCCN(CCOC)c1nc(N2CCC(O)C2)c2nc(N(CCOC)CCOC)nc(N3CCC(OC)CC3)c2n1 (stereo not shown) [Compound 94, 1-(2,6-bis(bis(2-methoxyethyl)amino)-8-(4-methoxypiperidin-1-yl)pyrimido[5,4-d]pyrimidin-4-yl)pyrrolidin-3-ol] | 
15 | 100 to 500 nM | COCCN(CCOC)c1nc(N2CC[C@@H](OC)C2)c2nc(N(CCOC)CCOC)nc(N3CCC(OC)CC3)c2n1 [Compound 107, (R)-N2,N2,N6,N6-tetrakis(2-methoxyethyl)-4-(4-methoxypiperidin-1-yl)-8-(3-methoxypyrrolidin-1-yl)pyrimido[5,4-d]pyrimidine-2,6-diamine] | 
16 | < 100 nM | COCCN(CCOC)c1nc(N2CCC(OC)CC2)c2nc(N(CCO)CCO)nc(N3CC(=O)N(C)C(C)(C)C3)c2n1 [Compound 311, 4-(2-(bis(2-hydroxyethyl)amino)-6-(bis(2-methoxyethyl)amino)-8-(4-methoxypiperidin-1-yl)pyrimido[5,4-d]pyrimidin-4-yl)-1,6,6-trimethylpiperazin-2-one] | 
17 | 100 to 500 nM | COCCN(CCOC)c1nc(N2CC(O)(C(F)(F)F)C2)c2nc(N(CCOC)CCOC)nc(N3CCS(=O)(=O)CC3)c2n1 [Compound 192, 4-(2,6-bis(bis(2-methoxyethyl)amino)-8-(3-hydroxy-3-(trifluoromethyl)azetidin-1-yl)pyrimido[5,4-d]pyrimidin-4-yl)thiomorpholine 1,1-dioxide] | 
18 | 100 to 500 nM | COCCN(CCOC)c1nc(N2CCC(OC)CC2)c2nc(N3CCn4ncnc4C3)nc(N3CCN(C)C(=O)C3)c2n1 [Compound 282, 4-(6-(bis(2-methoxyethyl)amino)-2-(5,6-dihydro-[1,2,4]triazolo[1,5-a]pyrazin-7(8H)-yl)-8-(4-methoxypiperidin-1-yl)pyrimido[5,4-d]pyrimidin-4-yl)-1-methylpiperazin-2-one] | 
19 | < 100 nM | COCCN(Cc1ccc(C(=O)O)c(C)c1)c1nc(N2CCN(C)C(=O)C2)c2nc(N(CCOC)CCOC)nc(N3CCC(OC)CC3)c2n1 [Compound 338, 4-(((6-(bis(2-methoxyethyl)amino)-8-(4-methoxypiperidin-1-yl)-4-(4-methyl-3-oxopiperazin-1-yl)pyrimido[5,4-d]pyrimidin-2-yl)(2-methoxyethyl)amino)methyl)-2-methylbenzoic acid] | 

Reference: patent publication US20230146675A1, “PYRIMIDO[5,4-d]PYRIMIDINE DERIVATIVES AS ENT INHIBITORS FOR THE TREATMENT OF CANCERS, AND COMBINATION THEREOF WITH ADENOSINE RECEPTOR ANTAGONISTS” (ITEOS BELGIUM SA, priority 2020, published 2023)
